In PubChem BioAssay AID256 (DTP/NCI, 2004):
Where “and” joins values, the source holds several entries; their conditions need not be identical. Equal entries are not always repeated. Toxic doses and inconclusive results are not listed.

Tested on: CD2F1 mice, L1210 leukemia ip, survival T/C
Experiment: NCI In Vivo Anticancer Drug Screen. Data for tumor model L1210 Leukemia (intraperitoneal) in CD2F1 (CDF1) mice
Settings: higher = longer survival
Summary of the method: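 Compound-dosed mice with transplantable tumor versus matched vehicle controls; endpoint ratio T/C reported.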

## NC(C/[N+]([O-])=N/O)C(=O)O (configuration not stated)
endpoint: mean survival time, dose: 5.0 mg/kg/injection, schedule: Q01DX009 (ip), vehicle: alkali diluted with saline
  T/C: 100 % of control
endpoint: mean survival time, dose: 7.5 mg/kg/injection, schedule: Q01DX005 (ip), vehicle: alkali diluted with saline
  T/C: 98 % of control
endpoint: mean survival time, dose: 8.0 mg/kg/injection, schedule: Q03HX008 (ip), vehicle: saline
  T/C: 111 % of control
endpoint: mean survival time, dose: 8.0 mg/kg/injection, schedule: Q03HX016 (ip), vehicle: saline
  T/C: 105 % of control
endpoint: mean survival time, dose: 8.0 mg/kg/injection, schedule: Q03HX024 (ip), vehicle: saline
  T/C: 109 % of control
endpoint: mean survival time, dose: 8.78 mg/kg/injection, schedule: Q01DX010 (ip), vehicle: alkali diluted with saline
  T/C: 121 % of control
endpoint: mean survival time, dose: 9.38 mg/kg/injection, schedule: Q01DX009 (ip), vehicle: alkali diluted with saline
  T/C: 118 % of control
endpoint: mean survival time, dose: 10.0 mg/kg/injection, schedule: Q01DX009 (ip), vehicle: alkali diluted with saline
  T/C: 101 % of control
endpoint: mean survival time, dose: 13.2 mg/kg/injection, schedule: Q01DX010 (ip), vehicle: alkali diluted with saline
  T/C: 120 % of control
endpoint: mean survival time, dose: 15.0 mg/kg/injection, schedule: Q01DX005 (ip), vehicle: alkali diluted with saline
  T/C: 113 % of control
endpoint: mean survival time, dose: 16.0 mg/kg/injection, schedule: Q01DX009 (sc), vehicle: saline
  T/C: 97 % of control
endpoint: mean survival time, dose: 16.0 mg/kg/injection, schedule: Q03HX008 (ip), vehicle: saline
  T/C: 112 % of control
endpoint: mean survival time, dose: 16.0 mg/kg/injection, schedule: Q03HX016 (ip), vehicle: saline
  T/C: 104 % of control
endpoint: mean survival time, dose: 16.0 mg/kg/injection, schedule: Q03HX024 (ip), vehicle: saline
  T/C: 112 % of control
endpoint: mean survival time, dose: 18.75 mg/kg/injection, schedule: Q01DX009 (ip), vehicle: alkali diluted with saline
  T/C: 119 % of control
endpoint: mean survival time, dose: 18.8 mg/kg/injection, schedule: Q01DX009 (ip), vehicle: alkali diluted with saline
  T/C: 102 % of control
endpoint: mean survival time, dose: 19.8 mg/kg/injection, schedule: Q01DX010 (ip), vehicle: alkali diluted with saline
  T/C: 121 % of control
endpoint: mean survival time, dose: 20.0 mg/kg/injection, schedule: Q01DX009 (ip), vehicle: alkali diluted with saline
  T/C: 105 % of control
endpoint: mean survival time, dose: 28.12 mg/kg/injection, schedule: Q04DX003 (ip), vehicle: alkali diluted with saline
  T/C: 103 % of control
endpoint: mean survival time, dose: 30.0 mg/kg/injection, schedule: Q01DX005 (ip), vehicle: alkali diluted with saline
  T/C: 122 % of control
endpoint: mean survival time, dose: 32.0 mg/kg/injection, schedule: Q01DX009 (ip), vehicle: saline
  T/C: 123 % of control
endpoint: mean survival time, dose: 32.0 mg/kg/injection, schedule: Q01DX009 (sc), vehicle: saline
  T/C: 103 % of control
endpoint: mean survival time, dose: 32.0 mg/kg/injection, schedule: Q03HX008 (ip), vehicle: saline
  T/C: 108 % of control
endpoint: mean survival time, dose: 32.0 mg/kg/injection, schedule: Q03HX016 (ip), vehicle: saline
  T/C: 113 % of control
endpoint: mean survival time, dose: 37.5 mg/kg/injection, schedule: Q01DX009 (ip), vehicle: alkali diluted with saline
  T/C: 120 % of control and 124 % of control
endpoint: mean survival time, dose: 40.0 mg/kg/injection, schedule: Q01DX009 (ip), vehicle: alkali diluted with saline
  T/C: 120 % of control
endpoint: mean survival time, dose: 56.25 mg/kg/injection, schedule: Q04DX003 (ip), vehicle: alkali diluted with saline
  T/C: 116 % of control and 103 % of control
endpoint: mean survival time, dose: 64.0 mg/kg/injection, schedule: Q01DX001 (ip), vehicle: saline
  T/C: 111 % of control
endpoint: mean survival time, dose: 64.0 mg/kg/injection, schedule: Q01DX009 (oral), vehicle: saline
  T/C: 96 % of control
endpoint: mean survival time, dose: 64.0 mg/kg/injection, schedule: Q01DX009 (sc), vehicle: saline
  T/C: 111 % of control
endpoint: mean survival time, dose: 64.0 mg/kg/injection, schedule: Q03HX008 (ip), vehicle: saline
  T/C: 116 % of control
endpoint: mean survival time, dose: 64.0 mg/kg/injection, schedule: Q03HX016 (ip), vehicle: saline
  T/C: 116 % of control
endpoint: mean survival time, dose: 64.0 mg/kg/injection, schedule: Q04DX003 (ip), vehicle: saline
  T/C: 116 % of control
endpoint: mean survival time, dose: 64.0 mg/kg/injection, schedule: Q04DX003 (oral), vehicle: saline
  T/C: 98 % of control
endpoint: mean survival time, dose: 64.0 mg/kg/injection, schedule: Q04DX003 (sc), vehicle: saline
  T/C: 96 % of control
endpoint: mean survival time, dose: 64.0 mg/kg/injection, schedule: Q08DX002 (ip), vehicle: saline
  T/C: 109 % of control
endpoint: mean survival time, dose: 112.5 mg/kg/injection, schedule: Q04DX003 (ip), vehicle: alkali diluted with saline
  T/C: 123 % of control
endpoint: mean survival time, dose: 128.0 mg/kg/injection, schedule: Q01DX001 (ip), vehicle: saline
  T/C: 113 % of control
endpoint: mean survival time, dose: 128.0 mg/kg/injection, schedule: Q01DX009 (ip), vehicle: saline
  T/C: 95 % of control
endpoint: mean survival time, dose: 128.0 mg/kg/injection, schedule: Q01DX009 (oral), vehicle: saline
  T/C: 91 % of control
endpoint: mean survival time, dose: 128.0 mg/kg/injection, schedule: Q01DX009 (sc), vehicle: saline
  T/C: 104 % of control
endpoint: mean survival time, dose: 128.0 mg/kg/injection, schedule: Q04DX003 (oral), vehicle: saline
  T/C: 102 % of control
endpoint: mean survival time, dose: 128.0 mg/kg/injection, schedule: Q04DX003 (sc), vehicle: saline
  T/C: 105 % of control
endpoint: mean survival time, dose: 128.0 mg/kg/injection, schedule: Q08DX002 (ip), vehicle: saline
  T/C: 112 % of control
endpoint: mean survival time, dose: 150.0 mg/kg/injection, schedule: Q01DX009 (ip), vehicle: alkali diluted with saline
  T/C: 102 % of control
endpoint: mean survival time, dose: 256.0 mg/kg/injection, schedule: Q01DX001 (ip), vehicle: saline
  T/C: 123 % of control
endpoint: mean survival time, dose: 256.0 mg/kg/injection, schedule: Q04DX003 (ip), vehicle: saline
  T/C: 119 % of control
endpoint: mean survival time, dose: 256.0 mg/kg/injection, schedule: Q04DX003 (oral), vehicle: saline
  T/C: 116 % of control
endpoint: mean survival time, dose: 256.0 mg/kg/injection, schedule: Q04DX003 (sc), vehicle: saline
  T/C: 122 % of control
endpoint: mean survival time, dose: 512.0 mg/kg/injection, schedule: Q04DX003 (ip), vehicle: saline
  T/C: 170 % of control
endpoint: mean survival time, dose: 512.0 mg/kg/injection, schedule: Q04DX003 (sc), vehicle: saline
  T/C: 155 % of control
endpoint: mean survival time, dose: 1024.0 mg/kg/injection, schedule: Q04DX003 (ip), vehicle: saline
  T/C: 90 % of control
endpoint: mean survival time, dose: 1024.0 mg/kg/injection, schedule: Q04DX003 (oral), vehicle: saline
  T/C: 119 % of control
endpoint: mean survival time, dose: 1024.0 mg/kg/injection, schedule: Q04DX003 (sc), vehicle: saline
  T/C: 89 % of control
endpoint: mean survival time, dose: 1024.0 mg/kg/injection, schedule: Q08DX002 (ip), vehicle: saline
  T/C: 118 % of control
endpoint: median survival time, dose: 0.78 mg/kg/injection, schedule: Q01DX009 (ip), vehicle: water
  T/C: 100 % of control
endpoint: median survival time, dose: 0.78 mg/kg/injection, schedule: Q04DX003 (ip), vehicle: water
  T/C: 100 % of control
endpoint: median survival time, dose: 1.57 mg/kg/injection, schedule: Q01DX009 (ip), vehicle: water
  T/C: 95 % of control and 100 % of control
endpoint: median survival time, dose: 1.57 mg/kg/injection, schedule: Q04DX003 (ip), vehicle: water
  T/C: 95 % of control
endpoint: median survival time, dose: 3.13 mg/kg/injection, schedule: Q01DX009 (ip), vehicle: water
  T/C: 100 % of control
endpoint: median survival time, dose: 3.13 mg/kg/injection, schedule: Q04DX003 (ip), vehicle: water
  T/C: 95 % of control and 100 % of control
endpoint: median survival time, dose: 6.25 mg/kg/injection, schedule: Q01DX009 (ip), vehicle: water
  T/C: 110 % of control
endpoint: median survival time, dose: 6.25 mg/kg/injection, schedule: Q04DX003 (ip), vehicle: water
  T/C: 90 % of control and 95 % of control
endpoint: median survival time, dose: 12.5 mg/kg/injection, schedule: Q01DX009 (ip), vehicle: water
  T/C: 105 % of control
endpoint: median survival time, dose: 12.5 mg/kg/injection, schedule: Q04DX003 (ip), vehicle: water
  T/C: 90 % of control and 100 % of control
endpoint: median survival time, dose: 13.0 mg/kg/injection, schedule: Q01DX009 (ip), vehicle: alkali diluted with saline
  T/C: 120 % of control
endpoint: median survival time, dose: 16.2 mg/kg/injection, schedule: Q01DX009 (ip), vehicle: alkali diluted with saline
  T/C: 119 % of control
endpoint: median survival time, dose: 21.6 mg/kg/injection, schedule: Q01DX009 (ip), vehicle: alkali diluted with saline
  T/C: 122 % of control
endpoint: median survival time, dose: 25.0 mg/kg/injection, schedule: Q01DX009 (ip), vehicle: water
  T/C: 100 % of control
endpoint: median survival time, dose: 25.0 mg/kg/injection, schedule: Q04DX003 (ip), vehicle: water
  T/C: 90 % of control and 105 % of control
endpoint: median survival time, dose: 27.0 mg/kg/injection, schedule: Q01DX009 (ip), vehicle: alkali diluted with saline
  T/C: 124 % of control
endpoint: median survival time, dose: 31.3 mg/kg/injection, schedule: Q01DX009 (ip), vehicle: water
  T/C: 122 % of control
endpoint: median survival time, dose: 31.3 mg/kg/injection, schedule: Q04DX003 (ip), vehicle: water
  T/C: 116 % of control
endpoint: median survival time, dose: 35.0 mg/kg/injection, schedule: Q04DX003 (ip), vehicle: alkali diluted with saline
  T/C: 120 % of control
endpoint: median survival time, dose: 36.0 mg/kg/injection, schedule: Q01DX009 (ip), vehicle: alkali diluted with saline
  T/C: 120 % of control
endpoint: median survival time, dose: 58.3 mg/kg/injection, schedule: Q04DX003 (ip), vehicle: alkali diluted with saline
  T/C: 120 % of control
endpoint: median survival time, dose: 62.5 mg/kg/injection, schedule: Q01DX009 (ip), vehicle: water
  T/C: 122 % of control
endpoint: median survival time, dose: 62.5 mg/kg/injection, schedule: Q04DX003 (ip), vehicle: water
  T/C: 122 % of control
endpoint: median survival time, dose: 90.0 mg/kg/injection, schedule: Q01DX009 (ip), vehicle: alkali diluted with saline
  T/C: 158 % of control
endpoint: median survival time, dose: 125.0 mg/kg/injection, schedule: Q01DX009 (ip), vehicle: alkali diluted with saline
  T/C: 114 % of control
endpoint: median survival time, dose: 125.0 mg/kg/injection, schedule: Q01DX009 (ip), vehicle: water
  T/C: 88 % of control
endpoint: median survival time, dose: 125.0 mg/kg/injection, schedule: Q04DX003 (ip), vehicle: water
  T/C: 122 % of control
endpoint: median survival time, dose: 162.0 mg/kg/injection, schedule: Q04DX003 (ip), vehicle: alkali diluted with saline
  T/C: 151 % of control
endpoint: median survival time, dose: 250.0 mg/kg/injection, schedule: Q04DX003 (ip), vehicle: water
  T/C: 155 % of control and 177 % of control
endpoint: median survival time, dose: 270.0 mg/kg/injection, schedule: Q04DX003 (ip), vehicle: alkali diluted with saline
  T/C: 172 % of control
endpoint: median survival time, dose: 450.0 mg/kg/injection, schedule: Q04DX003 (ip), vehicle: alkali diluted with saline
  T/C: 189 % of control
endpoint: median survival time, dose: 500.0 mg/kg/injection, schedule: Q04DX003 (ip), vehicle: water
  T/C: 194 % of control
